# In publication PMC5325569, “A new synthetic matrix metalloproteinase inhibitor reduces human mesenchymal stem cell adipogenesis” (PLoS ONE, 2017):
# What was measured:
# MMP-2 [1] = target: T1, MMP-2 (Homo sapiens, UniProt P08253); assay: Fluorogenic substrate enzyme inhibition assay, MMP-2; format: biochemical; settings: 25°C, HEPES pH 7.5, 5 μM TCEP, fluorogenic substrate 1 μM
# T1 construct: gift of Dr. L. Jack Windsor (Indiana University, Indianapolis, IN)
# T1 sequence (P08253 110-660): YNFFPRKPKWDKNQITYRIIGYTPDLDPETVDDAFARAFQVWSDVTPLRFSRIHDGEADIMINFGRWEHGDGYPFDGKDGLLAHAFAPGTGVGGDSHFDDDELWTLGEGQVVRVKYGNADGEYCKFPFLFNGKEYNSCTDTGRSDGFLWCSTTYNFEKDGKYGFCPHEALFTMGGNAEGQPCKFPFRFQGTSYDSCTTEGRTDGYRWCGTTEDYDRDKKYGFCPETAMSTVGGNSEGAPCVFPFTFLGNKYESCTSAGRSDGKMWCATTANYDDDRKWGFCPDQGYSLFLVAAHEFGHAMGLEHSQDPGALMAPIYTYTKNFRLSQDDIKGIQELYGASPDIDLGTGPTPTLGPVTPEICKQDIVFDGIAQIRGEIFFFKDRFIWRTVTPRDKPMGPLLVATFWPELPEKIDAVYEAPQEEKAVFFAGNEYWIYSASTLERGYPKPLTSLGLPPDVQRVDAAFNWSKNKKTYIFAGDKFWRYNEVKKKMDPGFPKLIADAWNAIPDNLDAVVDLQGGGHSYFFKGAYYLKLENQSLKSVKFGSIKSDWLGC
# Experimental: (§1) Enzymatic assays to characterize inhibitor potency were performed as previously described. Assays were performed at 25°C in 50 mM 4-(2-hydroxyethyl)-1-piperazineethanesulfonic acid (HEPES) buffer at pH 7.5 with 10 mM CaCl2, 200 mM NaCl, 0.01% (w/v) Brij-35, and 5 μM tris(2-carboxyethyl)[…] (TCEP). […] Briefly, 10 μL of inhibitor solution or control (100% DMSO), 176 μL of assay buffer, and 10 μL of enzyme solution were mixed and incubated for 30 min prior to initiation of the assay, which was accomplished by adding 4 μL of substrate solution, 5% final concentration DMSO. […] Inhibitor potency was determined via comparison of relative rates (vi/vo).
# MMP-2 [2] = assay: qPCR of MMP-2 gene expression in hMSCs undergoing adipogenesis; format: cell-based, human; settings: 10 μM
# Experimental: (§2) MMPI treated and untreated hMSCs were collected every 72 h over 21 days of differentiation. Total RNA from each time point was isolated using the E.Z.N.A. Total RNA Kit I (Omega Bio-Tek, Norcross, GA) and purified with the DNA-free RNA Kit (Zymo Research, Irvine, CA). RNA was resuspended in nuclease-free water, with concentrations determined via a Nanodrop UV-Vis Spectrophotometer (ThermoFisher Scientific, Waltham, MA). 500 ng of RNA was used for cDNA synthesis using qScript cDNA SuperMix (Quanta Bioscience, Gaitherburg, MD). 100 ng/μL cDNA was used as template for quantitative PCR on a 7500 Fast Real Time PCR system (Life Technologies, Carlsbad, CA) using PerfeCTa SYBR® Green SuperMix, Low Rox (Quanta Bioscience). Relative gene expression was determined via the 2^^(-ΔΔCt) method. Expression levels of PPARγ (peroxisome-proliferator activated receptor gamma) were determined. β-Actin was used as an endogenous control. Primers were designed with Primer-BLAST (NCBI) and purchased from Integrated DNA Technologies (IDT, Coralville, IA). MMP-2: forward: 5’-[…]-3’ reverse: 5’-[…]-3’; MMP-14: forward: 5’-[…]-3’ Reverse: 5’-[…]-3’; PPARγ: forward: 5’-[…]-3’ reverse: 5’-[…]-3’; β-Actin: forward: 5’-[…]-3’ reverse: 5’-[…]-3’.
# [3] = design: method as in PMID 23631440; settings: standard enzyme inhibition assay conditions; cited from earlier work
# hMSCs [4] = assay: Cytotoxicity assay (Trypan Blue, cell count); format: cell-based, human; settings: 0–100 μM, 24 h
# Experimental: Mercaptosulfonamide MMPIs were dissolved in 100% DMSO to generate 8 mM stock solutions and subsequently diluted with αMEM, while maintaining the final DMSO concentration at 1.25% (v/v). Media supplemented with a panel of final inhibitor concentrations ranging from 0–100 μM were then added to 70–80% confluent hMSC cultures and incubated for 24 h. At the end of treatment, inhibitor-conditioned media was removed and cells were washed with phosphate buffered saline (PBS) (pH 7.4) prior to being trypsinized (0.25% Trypsin, GE Healthcare), pelleted, and resuspended in 1 mL of fresh αMEM. Aliquots of the cell suspension for each condition were diluted 1:1 with 0.4% (w/v) Trypan Blue and counted with a hemocytometer. Relative cytotoxicity was determined by normalizing cell number for each condition against its respective control. A concentration was arbitrarily deemed cytotoxic if it produced a statistically significant reduction in cell number when compared to DMSO controls.
# MMP-9 = target: T2, MMP-9 (Homo sapiens, UniProt P14780); assay: Fluorogenic substrate enzyme inhibition assay, MMP-9; format: biochemical; settings: 25°C, HEPES pH 7.5, 5 μM TCEP, fluorogenic substrate 1 μM
# T2 construct: human neutrophil gelatinase B was purified from human blood; from tissue; host or cells: human blood (neutrophils)
# Experimental: as §1
# MMP-14 [5] = target: T3, MMP-14 (Homo sapiens, UniProt P50281); assay: Fluorogenic substrate enzyme inhibition assay, MMP-14; format: biochemical; settings: 25°C, HEPES pH 7.5, 5 μM TCEP, fluorogenic substrate 1 μM
# T3 construct: gift of Dr. Harald Tscheche (Bielefeld University, Bielefeld, Germany)
# Experimental: (§3) Enzymatic assays to characterize inhibitor potency were performed as previously described. Assays were performed at 25°C in 50 mM 4-(2-hydroxyethyl)-1-piperazineethanesulfonic acid (HEPES) buffer at pH 7.5 with 10 mM CaCl2, 200 mM NaCl, 0.01% (w/v) Brij-35, and 5 μM tris(2-carboxyethyl)[…] (TCEP). The fluorogenic substrate Mca-PLGLDpa-AR-NH2 (M-1895, Bachem, Torrance, CA) was used at a concentration of 1 μM as the substrate to measure inhibition constants. Briefly, 10 μL of inhibitor solution or control (100% DMSO), 176 μL of assay buffer, and 10 μL of enzyme solution were mixed and incubated for 30 min prior to initiation of the assay, which was accomplished by adding 4 μL of substrate solution, 5% final concentration DMSO. The release of product was monitored by fluorescence (λex = 328 nm, λem = 393 nm) with a PerkinElmer luminescence spectrophotometer LS50B (FL WinLab v3.0) connected to a temperature-controlled water bath. Inhibitor potency was determined via comparison of relative rates (vi/vo).
# hMSCs [6] = assay: Adipogenic differentiation, lipid accumulation, co-treatment with T0070907; format: cell-based, human; settings: 10 μM compound with 10 μM T0070907
# Experimental: (§4) Human MSCs were seeded into 6-well plates at 1,000 cells/cm^2. Upon reaching 70–80% confluence hMSCs were induced towards an adipogenic lineage by adding dexamethasone (0.5 μM), 3-isobutyl-1-methylxanthine ([…]), and indomethacin (50 μM) to the culture medium. Tested compounds were dissolved in DMSO and added to treatment wells during differentiation to a final total concentration of 10 μM with DMSO concentrations remaining constant (0.125% or 0.25% v/v) between conditions. Wells treated with appropriate concentrations of DMSO alone served as controls. Media and treatments were refreshed every 72 h for 21 days.
# (§5) After 21 days of differentiation, hMSCs were washed with PBS and fixed with neutral buffered formalin for 1 h. Cells were then stained with 0.3% (w/v) Oil Red-O in 3:2 100% isopropyl alcohol to PBS for 20 min, washed with PBS, stained with 5 μg/mL Hoechst 33342 for 5 min, then washed again. Cultures were later imaged with an epifluorescence capable Nikon TE2000-E2 Eclipse microscope. Relative staining was determined with ImageJ (version 1.46c, National Institutes of Health, Bethesda, MD) by standardizing the area stained in each image to nuclei number prior to normalizing against DMSO treated controls.
# hMSCs [7] = assay: Relative cell number via nuclei counts in differentiating hMSCs; format: cell-based, human
# Experimental: as §5
# Fig 5 Co-treatment of differentiating hMSCs with T0070907 and MMPIs. […] DMSO vehicle was maintained consistent between treatments and used as control. (B) Relative cell number was determined via nuclei counts. […] Scale bar 150 μm. ** P < 0.05, ++ P < 0.05, ## P < 0.05 compared to T0070907.
# MMP-1 = target: T4, MMP-1 (Homo sapiens, UniProt P03956); assay: Fluorogenic substrate enzyme inhibition assay, MMP-1; format: biochemical; settings: 25°C, HEPES pH 7.5, 5 μM TCEP, fluorogenic substrate 1 μM
# T4 construct: gift of Dr. L. Jack Windsor (Indiana University, Indianapolis, IN)
# T4 sequence (P03956 100-469): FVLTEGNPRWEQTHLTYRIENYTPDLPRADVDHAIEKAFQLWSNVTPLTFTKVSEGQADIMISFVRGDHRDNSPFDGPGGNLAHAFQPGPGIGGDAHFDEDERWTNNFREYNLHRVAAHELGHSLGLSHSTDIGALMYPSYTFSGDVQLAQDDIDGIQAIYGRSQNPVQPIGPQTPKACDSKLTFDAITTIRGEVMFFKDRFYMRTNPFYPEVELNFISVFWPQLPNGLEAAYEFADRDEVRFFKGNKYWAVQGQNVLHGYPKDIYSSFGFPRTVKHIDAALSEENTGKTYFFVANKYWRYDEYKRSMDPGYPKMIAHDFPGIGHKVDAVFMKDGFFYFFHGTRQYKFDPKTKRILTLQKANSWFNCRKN
# Experimental: as §1
# MMP-14 [8] = assay: qPCR of MMP-14 gene expression in hMSCs undergoing adipogenesis; format: cell-based, human; settings: 10 μM
# Experimental: as §2
# PPARγ [9] = assay: qPCR of PPARγ gene expression in hMSCs undergoing adipogenesis; format: cell-based, human; settings: 10 μM, 21 days, harvested every 72 h, vs DMSO controls
# Experimental: as §2
# MMP-7 = target: T5, MMP-7 (Homo sapiens, UniProt P09237); assay: Fluorogenic substrate enzyme inhibition assay, MMP-7; format: biochemical; settings: 25°C, HEPES pH 7.5, 5 μM TCEP, fluorogenic substrate 1 μM
# T5 construct: gift of Dr. Harold E. Van Wart (Syntex, Palo Alto, CA)
# T5 sequence (P09237 95-267): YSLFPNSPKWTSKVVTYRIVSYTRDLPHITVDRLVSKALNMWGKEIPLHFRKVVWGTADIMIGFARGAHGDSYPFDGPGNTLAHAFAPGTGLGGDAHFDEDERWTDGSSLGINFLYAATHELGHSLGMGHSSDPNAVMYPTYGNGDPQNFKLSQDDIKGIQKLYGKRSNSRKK
# Experimental: as §3
# hMSCs [10] = assay: Adipogenic differentiation, lipid accumulation by Oil Red-O staining; format: cell-based, human; settings: 10 μM, 21 days differentiation, vs DMSO control
# Experimental: as §4, §5
# PPARγ [11] = system: PPARγ; design: method as in PMID 11877444; settings: read-out: apparent IC50; cited from earlier work
# [12] = design: method as in PMID 19752200; settings: up to 50 μM; cited from earlier work
# [13] = system: MCF-7 breast cancer cells; design: method as in PMID 21498701; settings: treatments up to 20 μM, without induction of apoptosis; cited from earlier work
# [14] = system: MDA-MB-231 breast cancer cells; design: method as in PMID 21498701; settings: treatments up to 20 μM, without induction of apoptosis; cited from earlier work
# [15] = Day 21, compared to the negative control
# T2 sequence (P14780 94-707): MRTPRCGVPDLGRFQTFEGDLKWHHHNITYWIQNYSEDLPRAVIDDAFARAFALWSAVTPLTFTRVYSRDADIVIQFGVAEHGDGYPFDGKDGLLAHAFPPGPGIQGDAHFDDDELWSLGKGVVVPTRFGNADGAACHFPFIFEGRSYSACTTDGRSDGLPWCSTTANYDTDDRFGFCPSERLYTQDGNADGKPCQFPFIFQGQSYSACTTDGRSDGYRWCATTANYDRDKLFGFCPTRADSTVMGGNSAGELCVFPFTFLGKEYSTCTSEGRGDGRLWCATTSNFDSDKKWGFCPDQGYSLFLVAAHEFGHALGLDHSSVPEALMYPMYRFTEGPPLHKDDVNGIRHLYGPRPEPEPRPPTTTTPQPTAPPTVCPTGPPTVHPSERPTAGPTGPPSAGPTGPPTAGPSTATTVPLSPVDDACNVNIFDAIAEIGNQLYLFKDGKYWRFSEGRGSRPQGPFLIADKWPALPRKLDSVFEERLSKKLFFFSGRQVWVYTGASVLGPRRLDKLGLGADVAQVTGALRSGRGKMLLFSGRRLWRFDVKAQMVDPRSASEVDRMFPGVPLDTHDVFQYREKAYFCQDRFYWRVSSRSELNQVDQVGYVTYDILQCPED
structure (smiles),measurement,setting,value
NCCCCCC(=O)N1C[C@H](NS(=O)(=O)c2ccc(Oc3ccccc3)cc2)[C@@H](S)C1 (relative stereo) [YHJ-7-52],IC50,MMP-2 [1],5.5 ± 4.2 nM
same,MMP-2 gene expression level on Day 21,MMP-2 [2]; [15],significantly higher
same,MMP-2 gene expression level,"MMP-2 [2]; over 21 days, vs DMSO control",does not affect
same,Stability,[3],lower stability than the hydroxamate MMPI GM6001
same,Concentration producing a significant reduction in cell number,hMSCs [4],100 µM
same,IC50,MMP-9,87 ± 9 nM
same,IC50,MMP-14 [5],4.3 ± 0.7 nM
same,Further reduction of lipid accumulation on co-treatment with T0070907,hMSCs [6],~ 20%
same,Further reduction of cell number on co-treatment with T0070907,hMSCs [7]; 10 μM compound with 10 μM T0070907,did not result in further cell number reductions
same,IC50,MMP-1,1200 ± 370 nM
same,MMP-14 gene expression level on Day 21,MMP-14 [8]; [15],significantly higher
same,MMP-14 gene expression level,"MMP-14 [8]; over 21 days, vs DMSO control",does not affect
same,PPARγ expression,PPARγ [9],significantly suppressed PPARγ expression after day 9
same,IC50,MMP-7,2400 ± 720 nM
NCCCCCC(=O)N1C[C@H](NS(=O)(=O)c2ccc(Oc3ccccc3)cc2)[C@@H](O)C1 (relative stereo) [YHJ-7-82],IC50,MMP-2 [1],> 100000 nM
same,IC50 MMP-2,MMP-2 [1],almost undetectable inhibitory activity
same,Cytotoxicity,hMSCs [4],minimal cytotoxicity across all tested concentrations
same,IC50,MMP-9,> 200000 nM
same,IC50 MMP-9,MMP-9,almost undetectable inhibitory activity
same,IC50,MMP-14 [5],> 200000 nM
same,IC50 MMP-14,MMP-14 [5],almost undetectable inhibitory activity
same,Reduction of lipid accumulation,hMSCs [10],did not produce a significant response
same,Further reduction of lipid accumulation on co-treatment with T0070907,hMSCs [6],did not provide any additional reductions
same,IC50,MMP-1,> 200000 nM
same,IC50 MMP-1,MMP-1,almost undetectable inhibitory activity
same,IC50,MMP-7,> 200000 nM
same,IC50 MMP-7,MMP-7,almost undetectable inhibitory activity
"CNC(=O)[C@H](Cc1c[nH]c2ccccc12)NC(=O)[C@@H](CC(=O)NO)CC(C)C [GM6001, reference compound]",IC50,MMP-14 [5],0.5 ± 0.1 nM
same,Reduction of lipid accumulation,hMSCs [10],~20%
same,Further reduction of lipid accumulation on co-treatment with T0070907,hMSCs [6],~ 20%
same,IC50,MMP-7,2 ± 1.9 nM
O=C(Nc1ccncc1)c1cc([N+](=O)[O-])ccc1Cl [T0070907],IC50,PPARγ [11],[…]
same,Cytotoxicity,[12],minimally cytotoxic
same,Reduction of lipid accumulation,hMSCs [10],20%
same,Reduction of relative cell number,"hMSCs [7]; 10 μM, nuclei counts",approximately 30%
Cc1c(C)c2c(c(C)c1O)CCC(C)(COc1ccc(CC3SC(=O)NC3=O)cc1)O2 (centres unmarked) [Troglitazone],Increase of lipid accumulation,hMSCs [10],approximately 80%
